Values quoted from earlier work, collected in US8073633B2 (The Invention Science Fund I, LLC, priority 2008, dated 2011).
Each block holds one compound with its values, some of them ahead of it.

Columns and labels:
[1] = in vivo
[2] = given with grapefruit juice as compared to water
[3] = coadministered itraconazole relative to placebo

innate oral bioavailability [1]: very low
percentage change in Cmax values [2]: 409%
Compound: COC(=O)C1=C(C)NC(C)=C(C(=O)OCC(C)C)C1c1ccccc1[N+](=O)[O-] (stereo not drawn) [nisoldipine]

change of area under the serum concentration-time curve [AUC (0-infinity)] [3]: at least tenfold
change of peak serum concentration (Cmax) [3]: at least tenfold
Compound: CCC(C)(C)C(=O)O[C@H]1C[C@@H](C)C=C2C=C[C@H](C)[C@H](CC[C@@H](O)C[C@@H](O)CC(=O)O)[C@H]21 [simvastatin acid]

Second part, the compound before the results:

Compound: CCOC(=O)C1=C(COCCN)NC(C)=C(C(=O)OC)C1c1ccccc1Cl (stereo not drawn) [amlodipine]
innate oral bioavailability [1]: very high
percentage change in Cmax values [2]: 115%

Compound: O=P1(N(CCCl)CCCl)NCCCO1 (stereo not drawn) [cyclophosphamide]
relative risk for ovarian failure (lupus nephritis patients homozygous or heterozygous for CYP2C19*2, pulse cyclophosphamide therapy): 0.10
probability of progressing to end stage renal disease (patients homozygous for CYP2B6*5 or CYP2C19*2 (P=0.0005)): higher probability
probability of achieving a complete renal response (patients homozygous for CYP2B6*5 or CYP2C19*2 (P=0.051)): lower probability

Compound: CC[C@H](C)C(=O)O[C@H]1C[C@H](O)C=C2C=C[C@H](C)[C@H](CC[C@@H](O)C[C@@H](O)CC(=O)O)[C@H]21 [pravastatin]
change of area under the serum concentration-time curve [AUC (0-infinity)] [3]: slightly increased
change of peak serum concentration (Cmax) [3]: slightly increased
plasma half-life [3]: not altered
